Like-named read-outs stand apart in the source and are kept apart here.
How the values were obtained:
4T1 subcutaneous tumor = test: Ex vivo NIR fluorescence of tumor and major organs, 48 h; format: in vivo, mouse
Text: (§1) After the intravenous administration of free Cy5.5, ^Cy5.5SAMIs, and ^Cy5.5PAC-SABIs, the mice were euthanized at the 48-h mark, and the heart, liver, spleen, lung, kidney, and tumor were harvested for ex vivo imaging (Fig. 5e, f). […] Despite the observed retention in metabolic organs such as the liver and kidney, distinct variations in tissue distribution were noted between ^Cy5.5SAMIs and ^Cy5.5PAC-SABIs (Fig. 5e, f and Supplementary Fig. 30). Specifically, ^Cy5.5PAC-SABIs achieved a marked selective enrichment in both BC and PC tumors. […] The discernible dissimilarity between these two molecules could be attributed to the presence of targeted ligands and EISA, which augmented the precise recognition of ^Cy5.5PAC-SABIs toward cancer cells and facilitated their proficient molecular assembly. To further observe the distribution of ^Cy5.5PAC-SABIs in the BC and PC tissues, we analyzed the Cy5.5 fluorescence of tumor sections. […] Moreover, we employed SEM imaging to visualize the in situ self-assembly morphology of PAC-SABIs.
(§2) To obtain breast and pancreatic subcutaneous xenografts, 1 × 10^6 4T1 or PAN02 cells were implanted into the right hind limb of BALB/c and C57BL/6 mice, respectively. When the tumor size reached ≈ 50 mm^3, mice were randomly sorted into free Cy5.5, ^Cy5.5SAMIs, and ^Cy5.5PAC-SABIs groups. The 4T1 and PAN02 tumor-bearing mice were correspondingly intravenously injected with free Cy5.5, ^Cy5.5SAMIs, and ^Cy5.5PAC-SABIs (the dose of Cy5.5 was 1 mg/kg) for in vivo fluorescence imaging with IVIS system (Perkin Elmer, USA). Then, the mice were sacrificed to collect the major organs (heart, liver, spleen, lung, and kidney) and tumors for ex vivo fluorescence imaging. Finally, the 4T1 and PAN02 tumors were embedded in Tissue-Tek OCT compound (Sakura, Japan), and cryosections of 8 µm thickness were prepared. The Cy5.5 signal was detected using a fluorescence microscope (Nikon, Japan).
(§3) Supplementary Fig. 30 Quantification analysis of the ex vivo NIR fluorescence intensity in tumors and major organs. a Quantitative calculation of average fluorescence signal in 4T1 tumor and major organ area. The error bars represent the mean ± SD (n = 3 mice; ****p < 0.0001; the p value was analyzed by a two-tailed unpaired Student’s t-test).b Quantitative calculation of average fluorescence signal in PAN02 tumor and major organ area. The error bars represent the mean ± SD (n = 3 mice; ****p < 0.0001; the p value was analyzed by a two-tailed unpaired Student’s t-test).Source data are provided as a Source Data file.
(§4) (1 picture or pasted object on this page, not shown here)

PAN02 subcutaneous tumor = format: in vivo, mouse
Text: as §1, §2, §3, §4

cyanine 5.5 [free Cy5.5]
ex vivo NIR fluorescence accumulation (4T1 subcutaneous tumor; 4T1 and PAN02 tumor-bearing mice, 48 h after i.v. injection, tumors and major organs): negligible accumulation in the tumors and major organs | Average radiant efficiency (4T1 subcutaneous tumor; 4T1 tumor, replicate 1): 0.156 × 10^3 P/Sec | Average radiant efficiency (4T1 subcutaneous tumor; 4T1 tumor, replicate 2): 0.054 × 10^3 P/Sec | Average radiant efficiency (4T1 subcutaneous tumor; 4T1 tumor, replicate 3): 0.174 × 10^3 P/Sec | Average radiant efficiency (4T1 subcutaneous tumor; Heart, 4T1 model, replicate 1): 0.085 × 10^3 P/Sec | Average radiant efficiency (4T1 subcutaneous tumor; Heart, 4T1 model, replicate 2): 0.174 × 10^3 P/Sec | Average radiant efficiency (4T1 subcutaneous tumor; Heart, 4T1 model, replicate 3): 0.168 × 10^3 P/Sec | Average radiant efficiency (4T1 subcutaneous tumor; Kidney, 4T1 model, replicate 1): 0.115 × 10^3 P/Sec | Average radiant efficiency (4T1 subcutaneous tumor; Kidney, 4T1 model, replicate 2): 0.12 × 10^3 P/Sec | Average radiant efficiency (4T1 subcutaneous tumor; Kidney, 4T1 model, replicate 3): 0.073 × 10^3 P/Sec | Average radiant efficiency (4T1 subcutaneous tumor; Liver, 4T1 model, replicate 1): 0.118 × 10^3 P/Sec | Average radiant efficiency (4T1 subcutaneous tumor; Liver, 4T1 model, replicate 2): 0.061 × 10^3 P/Sec | Average radiant efficiency (4T1 subcutaneous tumor; Liver, 4T1 model, replicate 3): 0.22 × 10^3 P/Sec | Average radiant efficiency (4T1 subcutaneous tumor; Lung, 4T1 model, replicate 1): 0.137 × 10^3 P/Sec | Average radiant efficiency (4T1 subcutaneous tumor; Lung, 4T1 model, replicate 2): 0.09 × 10^3 P/Sec | Average radiant efficiency (4T1 subcutaneous tumor; Lung, 4T1 model, replicate 3): 0.095 × 10^3 P/Sec | Average radiant efficiency (4T1 subcutaneous tumor; Spleen, 4T1 model, replicate 1): 0.157 × 10^3 P/Sec | Average radiant efficiency (4T1 subcutaneous tumor; Spleen, 4T1 model, replicate 2): 0.112 × 10^3 P/Sec | Average radiant efficiency (4T1 subcutaneous tumor; Spleen, 4T1 model, replicate 3): 0.069 × 10^3 P/Sec | Average radiant efficiency (PAN02 subcutaneous tumor; Heart, PAN02 model, replicate 1): 0.069 × 10^3 P/Sec | Average radiant efficiency (PAN02 subcutaneous tumor; Heart, PAN02 model, replicate 2): 0.108 × 10^3 P/Sec | Average radiant efficiency (PAN02 subcutaneous tumor; Heart, PAN02 model, replicate 3): 0.122 × 10^3 P/Sec | Average radiant efficiency (PAN02 subcutaneous tumor; Kidney, PAN02 model, replicate 1): 0.064 × 10^3 P/Sec | Average radiant efficiency (PAN02 subcutaneous tumor; Kidney, PAN02 model, replicate 2): 0.137 × 10^3 P/Sec | Average radiant efficiency (PAN02 subcutaneous tumor; Kidney, PAN02 model, replicate 3): 0.152 × 10^3 P/Sec | Average radiant efficiency (PAN02 subcutaneous tumor; Liver, PAN02 model, replicate 1): 0.094 × 10^3 P/Sec | Average radiant efficiency (PAN02 subcutaneous tumor; Liver, PAN02 model, replicate 2): 0.126 × 10^3 P/Sec | Average radiant efficiency (PAN02 subcutaneous tumor; Liver, PAN02 model, replicate 3): 0.145 × 10^3 P/Sec | Average radiant efficiency (PAN02 subcutaneous tumor; Lung, PAN02 model, replicate 1): 0.056 × 10^3 P/Sec | Average radiant efficiency (PAN02 subcutaneous tumor; Lung, PAN02 model, replicate 2): 0.103 × 10^3 P/Sec | Average radiant efficiency (PAN02 subcutaneous tumor; Lung, PAN02 model, replicate 3): 0.159 × 10^3 P/Sec | Average radiant efficiency (PAN02 subcutaneous tumor; PAN02 tumor, replicate 1): 0.125 × 10^3 P/Sec | Average radiant efficiency (PAN02 subcutaneous tumor; PAN02 tumor, replicate 2): 0.056 × 10^3 P/Sec | Average radiant efficiency (PAN02 subcutaneous tumor; PAN02 tumor, replicate 3): 0.141 × 10^3 P/Sec | Average radiant efficiency (PAN02 subcutaneous tumor; Spleen, PAN02 model, replicate 1): 0.046 × 10^3 P/Sec | Average radiant efficiency (PAN02 subcutaneous tumor; Spleen, PAN02 model, replicate 2): 0.093 × 10^3 P/Sec | Average radiant efficiency (PAN02 subcutaneous tumor; Spleen, PAN02 model, replicate 3): 0.157 × 10^3 P/Sec

— publication PMC11227529, “An in-situ peptide-antibody self-assembly to block CD47 and CD24 signaling enhances macrophage-mediated phagocytosis and anti-tumor immune responses” (Nature Communications, 2024)
